The source of these data is patent US11872236B2, “Pharmacological agents for treating ocular diseases” (CALASIA PHARMACEUTICALS, INC., priority 2018, dated 2024).

Molecules are shown by their SMILES. ≈ marks a conversion by molar mass, not a printed value. Read-outs that look alike come from different tables or passages of the source.

A word on the EC50: it is the concentration needed to bring the measured effect to its halfway point.

A short description of series [1]: Solubility with FDA approved excipients. It is filed as physicochemical. On the procedure:
Solubility: The solubility of CAP1160 and CAP4196 was tested with different FDA approved excipients such as cyclodextrin, PEG-b-PCL, Kolliphor-EL, Kolliphor-40, sorbitol, propelyne gycol, sodium phosphate, etc. […] This makes the formulation safe for topical use (see Table 6).

The target of the next series is TTR (Homo sapiens, UniProt P02766). To be noted: Sant'Anna, R. et al. (2016); cited from earlier work.
Series [2] has as its system human lens epithelial (HLE) cells. In words: Cell-based heat protection, viability by Alamar blue. More on the design: Cell Heat % protection: concentration or dose not given beside the values. The following applies: for Cell-based [Heat] (max % net protection): Table 5; for Cell Heat % protection: Table 8. The procedure:
Alamar blue was used for assessing viability. Mean±SEM of the measurements are shown.
Cell-based using assays using human lens epithelial cell lines SRA 01/04 and B3 were also performed. The cells were exposed to UV or heat and cell viability assessed 24 hours post-exposure by Alamar blue staining. In another experiment, SRA 01/04 cells were pre-incubated with varying concentrations of compounds two hours prior to UV exposure. Relative protection was measured as percent viability compared to vehicle control 24 hours following UV exposure. Mean±SEM of the measurements are shown.

A further series relates to SRA 01/04 HLE cells. In words: Cell-based UV protection, viability by Alamar blue.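 Also: cells pretreated with compound at a range of concentrations before UV irradiation, viability read 24 h after exposure.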 Details: species or system human. The following applies: Table 5. (The colour change of resazurin is a common sign of viable cells or microbes.)
Another series has as its target T1, alpha-A crystalline (Homo sapiens, UniProt P02489).
T1 sequence (P02489 1-173): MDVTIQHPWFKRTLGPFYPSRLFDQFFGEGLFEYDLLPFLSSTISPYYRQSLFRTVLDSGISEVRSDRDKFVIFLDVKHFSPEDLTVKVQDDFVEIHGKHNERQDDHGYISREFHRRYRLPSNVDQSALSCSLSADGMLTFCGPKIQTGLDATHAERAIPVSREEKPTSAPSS
The experiment in a line: Ca+2 and UVC induced aggregation of alpha-A crystalline (absorbance screen).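 As to all read-outs here: recombinant human alpha-A crystallin (500 µg/ml) preincubated 30 min with compound, then UV-induced aggregation tracked by absorbance at time points from 0 to 120 min.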 It is filed as biochemical. The following applies: for inhibition at 200 µM: Ca+2 and UVC induced aggregation of alpha-A crystalline, read-out: Percent protection (at 200 μM); for EC50: preventing Ca+2 and UVC induced aggregation of alpha-A crystalline.

In another series the test system is porcine eye lens. The experiment in a line: Ex vivo eye lens exposed to UVC radiation, cataract scoring. To be noted: Table 8; printed as a percentage. The procedure: The top row of the figure corresponds to lenses that were not exposed to UVC but contained same percent of DMSO as those that were exposed to UVC. The lenses were monitored and imaged for three days following the exposure to UVC. No drug was added to the lenses post UVC exposure.

In series [3] the test system is New Zealand white rabbits. The experiment in a line: Ocular safety / MTD, repeated dose for 7 days. To be noted: for Mortality and Morbidity: 50 μL × 4 times a day in each eye, male. The series is classed as in vivo. On the procedure: Prodrug CAP4196 is well-tolerated up to 10% concentration in New Zealand white rabbits. Initial maximum tolerated dose studies (MTD) help identify observable signs of toxicity and provide a rationale for setting dose levels in later definitive studies. Therefore, the MTD of CAP4196 was evaluated in New Zealand white rabbits. Four animals per group were dosed with increasing concentrations (0.25, 2.5, 8 and 10%) of CAP4196 at 50 μl volume q.i.d. dosing at 2 hrs interval. Following the dosing, the animals were evaluated for mortality and morbidity, ophthalmological examination, body weight, and clinical pathology before start of dosing then on dosing days 2, 4, and 6 prior to first dose instillation and on day 7, one hour after last dose instillation.

As for `Cc1ccc(C(=O)c2cc(O)c(O)c([N+](=O)[O-])c2)cc1` [CAP1160, Tolcapone], in series [1], the “With Kolliphor 40 (1:1) In water” value is reported as 1, the “With PEG-b-PCL (1:1) mg/ml in water” value was 1 mg/mL and the improvement in solubility is 10 fold. Also, in series [1] (aqueous with cosolvent or surfactant or cyclodextrin, Solubility in water with (2-hydroxypropyl)-beta cyclodextrin mg/ml (1:1)), the solubility was 2 mg/mL (≈ 7.32 mM). The solubility in series [1] (aqueous with cosolvent or surfactant or cyclodextrin, solubility) was 1.5 mg/mL (≈ 5.49 mM). This compound also yielded a solubility in series [1] (water, Solubility in water mg/ml) of 0.1 mg/mL (≈ 0.366 mM). Moreover, at TTR, the TTR aggregation inhibition entry was “potent TTR aggregation inhibitor”. The “Cell-based [Heat] (max % net protection)” value in series [2] came out at 23%. Besides, in the series on SRA 01/04 HLE cells, the “Cell-based [UV] (max % net protection)” value amounted to 68%. At alpha-A crystalline, the inhibition at 200 µM came to 65% and the midpoint of the response, the EC50, lay at 63.5 µM.
For `O=C(c1ccccc1)c1ccc(O)c(O)c1` [CAP1347], in series [2], the “Cell-based [Heat] (max % net protection)” value came out at 8%. Also, the “Cell-based [UV] (max % net protection)” value in the series on SRA 01/04 HLE cells turned out to be 28%. Moreover, on alpha-A crystalline, the inhibition at 200 µM worked out at 13% and the EC50 came out at 115 µM.
Taken in the same sequence, the figures for `O=C(c1cc(O)c(O)c([N+](=O)[O-])c1)c1ccccc1F` [CAP3089] were 0%, 31%, 56% and 362 µM.
With `Nc1ccc(Cl)cc1C(=O)c1ccccc1Cl` [CAP4126], the “Cell-based [UV] (max % net protection)” value in the series on SRA 01/04 HLE cells came out at 0%.
As for `O=C(c1ccccc1)c1ccccc1` [CAP4127], the “Cell-based [Heat] (max % net protection)” value in series [2] stood at 9%. The “Cell-based [UV] (max % net protection)” value with SRA 01/04 HLE cells came out at 55%.
On to `Nc1ccc(C(=O)c2ccccc2)cc1` [CAP4128], for which the “Cell-based [UV] (max % net protection)” value in the series on SRA 01/04 HLE cells is on record as 23%.
For the compound `Nc1ccc(C(=O)c2ccccc2)cc1N` [CAP4129], the “Cell-based [Heat] (max % net protection)” value in series [2] is reported as 0%. In the series with SRA 01/04 HLE cells, the “Cell-based [UV] (max % net protection)” value was 37%.
The matching figures for `COc1ccc(C(=O)c2ccccc2)cc1` [CAP4130]: 42% and 55%.
On to `O=C(c1ccccc1)c1ccc([N+](=O)[O-])cc1` [CAP4131], for which the “Cell-based [UV] (max % net protection)” value in the series with SRA 01/04 HLE cells is recorded as 0%.
Regarding `COc1ccc(C(=O)c2ccccc2)cc1OC` [CAP4132], the “Cell-based [Heat] (max % net protection)” value in series [2] is 0%. Moreover, the “Cell-based [UV] (max % net protection)” value in the series on SRA 01/04 HLE cells stood at 39%.
The matching figures for `O=C(c1ccccc1)c1ccc(O)c(O)c1O` [CAP4133]: 18% and 22%.
Taken in the same sequence, the figures for `COc1cc(O)c(C(=O)c2ccccc2)cc1S(=O)(=O)[O-].[Na+]` [CAP4135] were 4% and 75%.
Taken in the same sequence, the figures for `COc1cc(O)c(C(=O)c2cc(S(=O)(=O)[O-])c(OC)cc2O)cc1S(=O)(=O)[O-].[Na+].[Na+]` [CAP4136] were 5% and 70%.
With `Cc1ccc(C(=O)c2ccccc2)c(N)c1` [CAP4152], the “Cell-based [Heat] (max % net protection)” value in series [2] was 0%. In the series on SRA 01/04 HLE cells, the “Cell-based [UV] (max % net protection)” value turned out to be 17%.
The matching figures for `O=C(O)c1ccc(C(=O)c2ccc(C(=O)O)cc2)cc1` [CAP4160]: 0% and 82%.
`O=C(c1cccc(F)c1)c1cccc(F)c1` [CAP4161]: the “Cell-based [Heat] (max % net protection)” value in series [2] worked out at 8%. Besides, in the series on SRA 01/04 HLE cells, the “Cell-based [UV] (max % net protection)” value stood at 38%.
Taken in the same sequence, the figures for `COc1cc(O)c(C(=O)c2ccccc2)cc1S(=O)(=O)O` [CAP4162] were 3% and 60%.
Turning to `O=C(O)c1ccc(C(=O)c2ccccc2)cc1` [CAP4172], in series [2], the “Cell-based [Heat] (max % net protection)” value amounted to 9%. For the same compound, the “Cell-based [UV] (max % net protection)” value in the series with SRA 01/04 HLE cells is 67%.
In the case of `O=C(O)c1ccc(C(=O)c2ccccc2C(=O)O)cc1` [CAP4173], the “Cell-based [Heat] (max % net protection)” value in series [2] turned out to be 0%. In addition, the “Cell-based [UV] (max % net protection)” value with SRA 01/04 HLE cells is on record as 61%.
On to `CNc1ccc2c(O)cc(S(=O)(=O)O)cc2c1` [CAP4184], for which the Ex-vivo with porcine eye lens was found to be 15%. In addition, the “Cell Heat % protection” value in series [2] amounted to 4%.
Regarding `Nc1c(O)cc(S(=O)(=O)O)c2ccccc12` [CAP4188], the “Cell Heat % protection” value in series [2] is reported as 2%.
The same measure, in the same setting: as for `Nc1ccc2c(O)cc(S(=O)(=O)O)cc2c1` [CAP4190], the figure is 15%.
In the case of `Cc1ccc(C(=O)c2cc(OP(=O)([O-])[O-])c(O)c([N+](=O)[O-])c2)cc1.[Na+].[Na+]` [CAP4196, Sodium 2-hydroxy-5-(4-methylbenzoyl)-3-nitrophenyl phosphate], in series [1] (100 mg/ml, only water as solvent), the “pH of the formulation” value is 6.65. The solubility in series [1] (aqueous with cosolvent or surfactant or cyclodextrin, water with (2-hydroxypropyl)-beta cyclodextrin (1:1), read-out: Solubility in water with (2-hydroxypropyl)-beta cyclodextrin mg/ml (1:1)) worked out at 100 mg/mL; in series [1] (pH 6.65, only water as solvent, read-out: solubility), 100 mg/mL; in series [1] (water, read-out: Solubility in water), 100 mg/mL. Moreover, in series [1] (phosphate prodrug, only water as solvent), the improvement in solubility entry is on record as “greater than 660 fold”. For the same compound, the “Cell-based [Heat] (max % net protection)” value in series [2] turned out to be 38%. In series [3] (10% w/v, 50 μL, 4 times a day), the local reactions entry is “only few temporary local reactions like excessive rubbing of eyes and redness”. Further, the systemic toxicity result in series [3] (10% w/v, 50 μL, 4 times a day) is on record as “did not produced any systemic toxicity”. For the same compound, in series [3] (50 μL, 4 times a day, 2 hours interval, 7 days), the “MTD (highest dose concentration)” value turned out to be 10%. Further, the “Mortality and Morbidity” value in series [3] (ophthalmic formulation 0.25% w/v), in series [3] (ophthalmic formulation 4% w/v), in series [3] (ophthalmic formulation 8% w/v) and in series [3] (ophthalmic formulation 10% w/v) was 0 in each case. In addition, the well-tolerated concentration result in series [3] (topical ocular, repeated dose 7 days) was “up to 10%”. The “Cell-based [UV] (max % net protection)” value in the series with SRA 01/04 HLE cells is recorded as 63%.
For the compound `COc1ccc(C(=O)c2ccc([N+](=O)[O-])cc2)cc1S(=O)(=O)NCc1ccccc1` [CAP4256], the “Cell-based [UV] (max % net protection)” value in the series on SRA 01/04 HLE cells is 7%.
As for `COc1ccc(C(=O)c2ccc([N+](=O)[O-])cc2)cc1S(=O)(=O)NC1CCCCC1` [CAP4257], in the series on SRA 01/04 HLE cells, the “Cell-based [UV] (max % net protection)” value is 19%.
Consider `CCc1onc2ccc(C(=O)c3ccccc3)cc12` [CAP4258], for which the “Cell-based [UV] (max % net protection)” value in the series with SRA 01/04 HLE cells worked out at 36%.
As to `O=C(c1cccc([N+](=O)[O-])c1)c1ccc2c(c1)C(=O)OC2=O` [CAP4265], in series [2], the “Cell-based [Heat] (max % net protection)” value turned out to be 17%. Also, the “Cell-based [UV] (max % net protection)” value with SRA 01/04 HLE cells amounted to 129%.
The matching figures for `O=C(c1ccccc1)c1ccccc1S(=O)(=O)c1ccccc1` [CAP4279]: 0% and 5%.
On to `NC(=O)Cc1cccc(C(=O)c2ccccc2)c1N` [CAP4281], for which the “Cell-based [Heat] (max % net protection)” value in series [2] came to 8%. Moreover, in the series on SRA 01/04 HLE cells, the “Cell-based [UV] (max % net protection)” value was determined as 38%.
